Reference: article PMC11363844 (Materials Today Bio, 2024)

Tested on: E. coli ATCC 25922
Experiment: Resistance development assay
Format: cell-based

SMILES: CNC(C)C1CCC(N)C(OC2C(N)CC(N)C(OC3OCC(C)(O)C(NC)C3O)C2O)O1 (centres unmarked) [gentamicin]
- day on which resistance was demonstrated (sequential culturing over 25 days): fifth
- fold increase of MIC value (sequential culturing, by the 23rd day): 64 fold
